Strand notation (5' to 3'): a small letter for the sugar, then the base; units joined by * are phosphorothioate-linked, units joined directly phosphodiester-linked; [ ] holds rarer units or linkages, { } end groups; capitals alone tell only the bases. e = 2'-O-(2-methoxyethyl) (MOE); k = constrained ethyl (cEt); [5mC] = 5-methylcytosine; d = 2'-deoxy (DNA); m = 2'-O-methyl
System: Yap1 mRNA
Test: Antisense inhibition of human Yap1 in SNU-449 cells by modified oligonucleotides, single dose (Example 5, RTS36584)
Assay type: cell-based
Settings: Table 39; SNU-449 cells, 10,000 cells per well, free uptake, 2,000 nM oligonucleotide, approx. 48 hours; RTS36584; normalized to RIBOGREEN; Yap1 mRNA relative to untreated control
Outline: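 Values are Yap1 mRNA as percent of untreated control cells, measured by quantitative real-time RT-PCR using RTS36584 and normalised to total RNA by RIBOGREEN. Cells were SNU-449, dosed by free uptake at 2,000 nM for approximately 48 hours.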

| Substance | YAP1 (% UTC) |
| --- | --- |
| 1095379 (antisense kA*d[5mC]*dT*dG*dA*dG*dG*dT*dA*dT*dA*kA*e[5mC]*kT*eG*kG) [Compound 1095379] | 52 |
| 1198394 (kT*dT*dT*dT*dA*d[5mC]*dA*dT*dT*dA*dG*kG*eA*kA*e[5mC]*kA; antisense) [Compound 1198394] | 63 |
| 1198390 (kA*dG*dG*dT*dA*dT*dA*dA*d[5mC]*dT*dG*kG*eG*k[5mC]*eA*kA; antisense) [Compound 1198390] | 37 |
| 1198431 (kA*dA*dT*dA*dT*dT*dG*d[5mC]*dA*dA*dT*k[5mC]*eT*kG*eT*k[5mC]; antisense) [Compound 1198431] | 35 |

Same assay, conditions: Table 40 (separate experiment); SNU-449 cells, 10,000 cells per well, free uptake, 2,000 nM oligonucleotide, approx. 48 hours; RTS36584; normalized to RIBOGREEN; Yap1 mRNA relative to untreated control

| Substance | YAP1 (% UTC) |
| --- | --- |
| 1198722 (kA*eT*kA*dT*dG*dG*dA*dA*dA*dT*dT*dG*eT*e[5mC]*kT*k[5mC]; antisense) [Compound 1198722] | 48 |
| 1198779 (antisense kA*eA*kT*dA*dT*dT*dG*d[5mC]*dA*dA*dT*d[5mC]*eT*eG*kT*k[5mC]) [Compound 1198779] | 49 |
| 1198440 (kA*dA*dG*dT*dG*dT*dA*dT*dG*dT*d[5mC]*kA*eG*kA*eA*kG) [Compound 1198440] | 5 |

Same assay, conditions: Table 41; SNU-449 cells, 10,000 cells per well, free uptake, 2,000 nM modified oligonucleotide, approximately 48 hours; RTS36584; normalized to RIBOGREEN; Yap1 mRNA relative to untreated control cells

| Substance | YAP1 (% UTC) |
| --- | --- |
| 1198633 (kG*kG*dA*dA*dA*dT*dT*dG*dT*d[5mC]*dT*d[5mC]*kA*eT*kG*e[5mC]; antisense) [Compound 1198633] | 46 |
| 1198771 (kT*e[5mC]*kT*dT*dA*dT*dA*dT*dG*dG*dT*dT*eT*eT*kG*kT; antisense) [Compound 1198771] | 85 |
| 1198770 (k[5mC]*eT*kT*dA*dT*dA*dT*dG*dG*dT*dT*dT*eT*eG*kT*kG; antisense) [Compound 1198770] | 40 |

Same assay, conditions: Table 42 (separate experiment); SNU-449 cells, 10,000 cells per well, free uptake, 2,000 nM modified oligonucleotide, approximately 48 hours; RTS36584; normalized to RIBOGREEN; Yap1 mRNA relative to untreated control cells

| Substance | YAP1 (% UTC) |
| --- | --- |
| 1198698 (antisense kA*kA*dG*dT*dG*dT*dA*dT*dG*dT*d[5mC]*dA*kG*eA*kA*eG) [Compound 1198698] | 12 |
| 1198648 (kA*kG*dG*dT*dA*dT*dA*dA*d[5mC]*dT*dG*dG*kG*e[5mC]*kA*eA) [Compound 1198648] | 43 |
| 1198221 (kT*kT*dA*d[5mC]*dA*dT*dT*dA*dG*dG*dA*eA*e[5mC]*eA*kA*kG) [Compound 1198221] | 95 |
| 1198230 (kG*kG*dA*dA*dG*dA*dT*d[5mC]*dT*dG*dA*eA*eA*e[5mC]*kT*k[5mC]) [Compound 1198230] | 81 |
| 1198210 (kT*kT*dA*dG*dA*dG*dT*dA*dT*dG*dT*eG*eG*e[5mC]*kA*kA; antisense) [Compound 1198210] | 28 |

Same assay, conditions: Table 43 experiment; SNU-449 cells, 10,000 cells per well, free uptake, 2,000 nM, approximately 48 hours; RTS36584; Yap1 mRNA normalized to RIBOGREEN, relative to untreated control cells

| Substance | YAP1 (% UTC) |
| --- | --- |
| 1198456 (kT*kG*dT*d[5mC]*dT*d[5mC]*dA*dT*dG*d[5mC]*d[5mC]*eT*kT*eA*kT*eA) [Compound 1198456] | 21 |
| 1095594 (antisense k[5mC]*kT*dG*dA*dG*dG*dT*dA*dT*dA*dA*e[5mC]*eT*eG*kG*kG) [Compound 1095594] | 27 |
| 1198468 (antisense kT*kT*dA*dG*dA*dG*dT*dA*dT*dG*dT*eG*kG*e[5mC]*kA*eA) [Compound 1198468] | 22 |
| 119825 4 (kA*kA*d[5mC]*dT*d[5mC]*dT*dT*dA*dT*dA*dT*eG*eG*eT*kT*kT; antisense) | 95 |

Same assay, conditions: Table 44 experiment; SNU-449 cells, 10,000 cells per well, free uptake, 2,000 nM, approximately 48 hours; RTS36584; Yap1 mRNA normalized to RIBOGREEN, relative to untreated control cells

| Substance | YAP1 (% UTC) |
| --- | --- |
| 1198488 (antisense kG*kG*dA*dA*dG*dA*dT*d[5mC]*dT*dG*dA*eA*kA*e[5mC]*kT*e[5mC]) [Compound 1198488] | 66 |
| 1198504 (kT*k[5mC]*dA*dG*dA*dT*dT*dT*dA*dG*dG*eA*kT*eG*k[5mC]*eA; antisense) [Compound 1198504] | 15 |
| 1198492 (antisense kG*k[5mC]*dT*dT*dT*dG*dG*dA*dA*dG*dA*eT*k[5mC]*eT*kG*eA) [Compound 1198492] | 15 |

Same assay, conditions: Table 45; Yap1 mRNA as percent of untreated control, SNU-449 cells, single dose

| Substance | YAP1 (% UTC) |
| --- | --- |
| 1198970 (kT*kA*dA*dG*dT*dA*dA*dG*dG*dT*dT*kT*d[5mC]*k[5mC]*d[5mC]*kA; antisense) [Compound 1198970] | 29 |
| 1198896 (kT*kG*dG*dA*dA*dA*dT*dT*dG*dT*d[5mC]*kT*d[5mC]*kA*dT*kG; antisense) [Compound 1198896] | 59 |

Same assay, conditions: Table 46; Yap1 mRNA as percent of untreated control, SNU-449 cells, single dose

| Substance | YAP1 (% UT) |
| --- | --- |
| 1198841 (kT*kG*d[5mC]*dT*dT*dT*dG*dG*dA*dA*dG*kA*eT*k[5mC]*eT*kG; antisense) [Compound 1198841] | 116 % UT |
| 1198817 (antisense kA*kT*dT*dA*dG*dA*dG*dT*dA*dT*dG*kT*eG*kG*e[5mC]*kA) [Compound 1198817] | AksTksTdsAdsGdsAdsGdsTdsAdsTds43 % UT |
| 1198836 (kG*kG*dA*dA*dG*dA*dT*d[5mC]*dT*dG*dA*kA*eA*k[5mC]*eT*k[5mC]; antisense) [Compound 1198836] | 43 % UT |
| 1198882 (kA*kG*dT*dA*dA*dG*dG*dT*dT*dT*d[5mC]*k[5mC]*e[5mC]*kA*eG*kA; antisense) [Compound 1198882] | 56 % UT |
| 1198825 (kG*kA*dG*dG*dT*dA*dT*dA*dA*d[5mC]*dT*kG*eG*kG*e[5mC]*kA; antisense) [Compound 1198825] | 64 % UT |

Same assay, conditions: Table 48; Yap1 mRNA level relative to untreated control; modified oligonucleotides targeting SEQ ID NO.: 1 and 2

| Substance | YAP1 (% UT) |
| --- | --- |
| 1198316 (kG*kG*kA*dA*dG*dA*dT*d[5mC]*dT*dG*dA*dA*kA*e[5mC]*kT*e[5mC]; antisense) [Compound 1198316] | 49 |
| 1198285 (kA*kT*kT*dG*dT*d[5mC]*dT*d[5mC]*dA*dT*dG*d[5mC]*k[5mC]*eT*kT*eA; antisense) [Compound 1198285] | 13 |
| 1198348 (kT*kG*kT*dA*dA*dT*dA*dT*dT*dG*d[5mC]*dA*kA*eT*k[5mC]*eT; antisense) [Compound 1198348] | 40 |

Same assay, conditions: Table 49; Yap1 mRNA level relative to untreated control; modified oligonucleotides targeting SEQ ID NO.: 1 and 2

| Substance | YAP1 (% UT) |
| --- | --- |
| 1095566 (antisense CTGAGGTATAACTGGG; chemistry not fully specified) [Compound 1095566] | 47 |
| 1198356 (kT*kA*kA*dA*dG*dT*dG*dT*dA*dT*dG*dT*k[5mC]*eA*kG*eA; antisense) [Compound 1198356] | 5 |

Same assay, conditions: Table 50; Yap1 mRNA remaining as percent of untreated control (UT), SNU-449 cells, single dose

| Substance | YAP1 (% UT) |
| --- | --- |
| 1197230 (antisense kT*kG*kG*dA*mA*dA*dT*dT*dG*dT*d[5mC]*dT*d[5mC]*kA*kT*kG) [Compound 1197230] | 29 |

Same assay, conditions: Table 51; Yap1 mRNA remaining as percent of untreated control (UT), SNU-449 cells, single dose

| Substance | YAP1 (% UT) |
| --- | --- |
| 1197316 (kT*kA*kA*dG*mU*dA*dA*dG*dG*dT*dT*dT*d[5mC]*k[5mC]*k[5mC]*kA; antisense) [Compound 1197316] | 46 |
| 1197276 (k[5mC]*kT*kA*dA*mG*dT*dA*dA*dG*dG*dT*dT*dT*k[5mC]*k[5mC]*k[5mC]; antisense) [Compound 1197276] | 44 |
| 1200800 (T_{ks}A_{ks}T_{ks}A_{ds}T_{ds}U_{ys}A_{ds}G_{ds}A_{ds}G_{ds}T_{ds}A_{ds}T_{ds}G_{ks}T_{ks}G_{k}; antisense; as printed in the source, key not given here) [Compound 1200800] | 61 |
| 1197270 (kT*kT*kA*dA*mA*dG*dT*dG*dT*dA*dT*dG*dT*k[5mC]*kA*kG) [Compound 1197270] | 2 |
| 1200798 (kT*kA*kT*dT*dA*mG*dA*dG*dT*dA*dT*dG*dT*kG*kG*k[5mC]; antisense) [Compound 1200798] | 7 |

Same assay, conditions: Table 52; Yap1 mRNA, modified oligonucleotides targeting SEQ ID NO: 1 and 2

| Substance | YAP1 (% UT) |
| --- | --- |
| 1200863 (k[5mC]*kT*kT*dT*dA*mA*dA*dG*dT*dG*dT*dA*dT*kG*kT*k[5mC]; antisense) [Compound 1200863] | 41 |
| 1200828 (kA*kT*kA*dG*dT*mG*d[5mC]*dT*dT*dT*dG*dG*dA*kA*kG*kA; antisense) [Compound 1200828] | 54 |

Same assay, conditions: Yap1 mRNA, percent of untreated control; modified oligonucleotides targeting SEQ ID NO: 1 and 2; Table 47

| Substance | YAP1 (% UT) |
| --- | --- |
| 1197224 (antisense kA*k[5mC]*kT*dA*dA*dG*dT*dA*dA*dG*dG*dT*dT*kT*k[5mC]*k[5mC]) [Compound 1197224] | 24 |
| 1197197 (antisense kT*k[5mC]*kA*dG*dA*dT*dT*dT*dA*dG*dG*dA*dT*kG*k[5mC]*kA) [Compound 1197197] | 20 |
| 1197189 (antisense kT*kT*kT*dG*dG*dA*dA*dG*dA*dT*d[5mC]*dT*dG*kA*kA*kA) [Compound 1197189] | 71 |
| 1197186 (antisense kT*kT*kA*dA*dG*d[5mC]*dA*d[5mC]*dT*dT*dT*dT*dA*k[5mC]*kA*kT) [Compound 1197186] | 65 |
| 1197184 (antisense kA*kG*k[5mC]*dA*d[5mC]*dT*dT*dT*dT*dA*d[5mC]*dA*dT*kT*kA*kG) [Compound 1197184] | 20 |
| 1197190 (antisense k[5mC]*kT*kT*dT*dG*dG*dA*dA*dG*dA*dT*d[5mC]*dT*kG*kA*kA) [Compound 1197190] | 57 |

Reference: US11214803B2, “Modulators of YAP1 expression” (Ionis Pharmaceuticals, Inc., priority 2019, dated 2022)
